Measured values published in US11753408B2, “Compounds and method for blocking transmission of malarial parasite” (The United States of America, as represented by the …, priority 2016, dated 2023).

What was measured:
[1] = test system: Asexual parasites of P. falciparum strain 3D7; experiment: In vitro drug activity on asexual parasites (SYBR Green assay); format: cell-based, Plasmodium falciparum
How it was run: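 SYBR Green I fluorescence (ex 490, em 520 nm) was read after freeze-thaw lysis and 30 min staining at room temperature. Before that, drug-treated cultures (0.5% parasitemia, 2% hematocrit, DMSO ≤0.5%) were incubated 72 h, in duplicate.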

Solubility at pH 7.4 = format: physicochemical
mTOR = mTOR (Homo sapiens, UniProt P42345); experiment: mTOR activity (no method described); format: biochemical
PAMPA permeability = format: in vitro ADME
[2] = Microsomal stability (rat); format: in vitro ADME; settings: rat microsomes

| Compound | EC50 [1] [nM] | Sol @ pH 7.4 (Solubility at pH 7.4) [ug/mL] | mTOR (mTOR) [µM] | PAMPA Permeability (PAMPA permeability) [×10⁻⁶ cm/s] | Microsomal Stability (rat) T1/2 [2] [min] |
| --- | --- | --- | --- | --- | --- |
| O=C(NCCCO)c1ccc(-n2c(=O)ccc3cnc4ccc(-c5ccc(Cl)cc5)cc4c32)cc1 [Compound 214] | 18.8 | <1 | 0.3394 | 333 | 21.2 |
| O=C(c1ccc(-n2c(=O)ccc3cnc4ccc(-c5ccc6c(c5)CNC6)cc4c32)cc1)N1CCOCC1 [Compound 242] | 489 | >74 | 0.373 | < 1 | >30 |
| Cc1cc(C(=O)NC2CC2)ccc1-n1c(=O)ccc2cnc3ccc(-c4ccc(Cl)cc4)nc3c21 [Compound 247] | 81.8 | <1 | 1.903 | 846 | 16.7 |
| Cn1c(=O)n(-c2ccc(C(=O)O)cc2)c2c3cc(-c4ccc(Cl)cc4)ccc3ncc21 [Compound 435] | 3660 | 30.8 | 0.3646 | 11 | >30 |
| Cc1cc(C(=O)NCCCN2CCCCC2)ccc1-n1c(=O)ccc2cnc3ccc(-c4ccc(Cl)cc4)cc3c21 [Compound 278] | 110 | >83 | 8 | 1380 | 2.6 |
| CCC(=O)NCCNC(=O)c1ccc(-n2c(=O)ccc3cnc4ccc(-c5ccc(Cl)cc5)cc4c32)cc1 [Compound 287] | 58.4 | <1 | 2.083 | 21.7 | 4.3 |
| CN(C)CCOc1ccc(-c2ccc3ncc4ccc(=O)n(-c5ccc(C(=O)N6CCOCC6)cc5)c4c3c2)cc1 [Compound 202] | 120 | 57.8 | 3.267 | 415 | >30 |
| CN(C)CCc1ccc(-c2ccc3ncc4ccc(=O)n(-c5ccc(C(=O)NC6CC6)cc5)c4c3c2)cc1 [Compound 241] | 335 | >74 | 6.061 | 18.6 | >30 |
| O=C(NC1CC1)c1ccc(-n2c(=O)ccc3cnc4ccc(-c5ccc(CN6CCCC6)cc5)cc4c32)cc1 [Compound 233] | 162 | >76 | 6.306 | 155 | >30 |
| N#Cc1ccc2ncc3ccc(=O)n(-c4ccc(C(=O)N5CCOCC5)cc4)c3c2c1 [Compound 245] | 3820 | >61 | 10.41 | 11.7 | >30 |
| CNCc1ccc(-c2ccc3ncc4ccc(=O)n(-c5ccc(C(=O)N6CCOCC6)cc5)c4c3c2)cc1 [Compound 198] | 264 | >75 | 13.84 | 6.1 | >30 |
| CCNC(=O)c1ccc(-n2c(=O)ccc3cnc4ccc(-c5ccc(Cl)cc5)cc4c32)cc1 [Compound 216] | 42.2 | <1 | 0.8321 | 1.1 | 6.7 |
| Cc1cc(C(=O)NCCN2CCCC2)ccc1-n1c(=O)ccc2cnc3ccc(-c4ccc(F)cc4)cc3c21 [Compound 296] | 477 | 0 | 18.6 | 510 | 7.1 |
| CC(N)c1ccc(-c2ccc3ncc4ccc(=O)n(-c5ccc(C(=O)N6CCOCC6)cc5)c4c3c2)cc1 (centres unmarked) [Compound 207] | 145 | 58.1 | 0.1688 | < 1 | >30 |
| CC1CCN(CCCNC(=O)c2ccc(-n3c(=O)ccc4cnc5ccc(-c6ccc(Cl)cc6)cc5c43)cc2)CC1 [Compound 286] | 53.7 | 35.6 | 11.77 | 863 | 2.4 |
| CCCCNC(=O)c1ccc(-n2c(=O)ccc3cnc4ccc(-c5ccc(Cl)cc5)cc4c32)cc1 [Compound 209] | 538 | <1 | 2.492 | < 1 | 4 |
| NC(=O)c1ccc(-n2c(=O)ccc3cnc4ccc(-c5ccc(Cl)cc5)cc4c32)cc1 [Compound 239] | 17.5 | <1 | 0.2422 | 79.9 | >30 |

| Compound | EC50 [1] [nM] | Sol @ pH 7.4 (Solubility at pH 7.4) [ug/mL] | mTOR (mTOR) [µM] | PAMPA Permeability (PAMPA permeability) [×10⁻⁶ cm/s] | Microsomal Stability (rat) T1/2 [2] [min] |
| --- | --- | --- | --- | --- | --- |
| O=C(NCC(F)(F)F)c1ccc(-n2c(=O)ccc3cnc4ccc(-c5ccc(Cl)cc5)cc4c32)cc1 [Compound 89] | 52.1 | <1 | 2.689 | < 1 | >30 |
| Cc1cc(C(=O)NCCN2CCCCC2)ccc1-n1c(=O)ccc2cnc3ccc(-c4ccc(Cl)cc4)cc3c21 [Compound 291] | 211 | 0 | 4.975 | 773 | 3.1 |
| COc1cc(C(=O)NCCCN2CCC(C)CC2)ccc1-n1c(=O)ccc2cnc3ccc(-c4ccc(Cl)cc4)cc3c21 [Compound 255] | 182 | >88 | 12.95 | 1040 | 2.3 |
| COc1cc(C(=O)NCCN2CCCCC2)ccc1-n1c(=O)ccc2cnc3ccc(-c4ccc(Cl)cc4)cc3c21 [Compound 256] | 501 | <1 | 8.776 | 664 | 3.5 |
| Cc1cc(C(=O)NCCCN2CCS(=O)(=O)CC2)ccc1-n1c(=O)ccc2cnc3ccc(-c4ccc(Cl)cc4)cc3c21 [Compound 289] | 86.7 | <1 | 9.216 | 141 | 1.7 |
| COc1cc(C(=O)NCCN2CCNCC2)ccc1-n1c(=O)ccc2cnc3ccc(-c4ccc(Cl)cc4)cc3c21 [Compound 257] | 60.8 | >84 | 2.719 | 1.5 | >30 |
| COc1cc(C(=O)NC2CCN(CCO)CC2)ccc1-n1c(=O)ccc2cnc3ccc(-c4ccc(Cl)cc4)cc3c21 [Compound 254] | 206 | 53.1 | 3.012 | 5.7 | >30 |
| Cc1cc(C(=O)NCCCN2CCC(C)CC2)ccc1-n1c(=O)ccc2cnc3ccc(-c4ccc(Cl)cc4)cc3c21 [Compound 283] | 69.1 | 70.7 | 15.09 | 1180 | 2.7 |
| COc1cc(C(=O)NCCN(C)c2ccccc2)ccc1-n1c(=O)ccc2cnc3ccc(-c4ccc(Cl)cc4)cc3c21 [Compound 251] | 2370 | <1 | 100 | < 1 | 1.3 |
| Cc1cc(C(=O)NC2CC2)ccc1-n1c(=O)ccc2cnc3ccc(-c4ccc(F)c(O)c4)cc3c21 [Compound 222] | 22.8 | 7.1 | 0.8206 | 758 | 27.2 |
| COc1cc(C(=O)NCCN2CCC2)ccc1-n1c(=O)ccc2cnc3ccc(-c4ccc(Cl)cc4)cc3c21 [Compound 253] | 258 | >80 | 8.463 | 353 | >30 |
| CCN(CC)CCNC(=O)c1ccc(-n2c(=O)ccc3cnc4ccc(-c5ccc(Cl)cc5)cc4c32)c(C)c1 [Compound 276] | 222 | 34.8 | 21.76 | 973 | 5.8 |
| O=C(NC1CNC1)c1ccc(-n2c(=O)ccc3cnc4ccc(-c5ccc(Cl)cc5)cc4c32)cc1 [Compound 232] | 53.4 | 9.2 | 1.065 | 7.6 | >30 |
| O=C(c1ccc(-n2c(=O)ccc3c[n+]([O-])c4ccc(-c5ccc(Cl)cc5)cc4c32)cc1)N(CCO)CCO [Compound 236] | 1200 | >78 | 50 | < 1 | >30 |
| O=C(NC1CC1)c1ccc(-n2c(=O)ccc3cnc4ccc(-c5ccc(F)c(O)c5)cc4c32)cc1 [Compound 203] | 17.2 | 1.2 | 0.5128 | 750 | 29.3 |
| CC(C)(N)c1ccc(-c2ccc3ncc4ccc(=O)n(-c5ccc(C(=O)NC6CC6)cc5)c4c3c2)cc1 [Compound 246] | 1260 | >72 | 0.6459 | 1.5 | >30 |
| Cc1nc2ccc(-c3ccc(Cl)cc3)cc2c2c1ccc(=O)n2-c1ccc(C(=O)N2CCOCC2)cc1 [Compound 234] | 2220 | <1 | 18.92 | 874 | 1.4 |
